One assay concerns P. aeruginosa PAO1. Briefly: MIC, agar plate dilution method, P. aeruginosa PAO1. In kind it is cell-based, Pseudomonas aeruginosa. The note with it: for MIC: Pseudomonas aeruginosa, PAO1, P. aeruginosa PAO1, Sensitive bacterium, read-out: minimal inhibitory concentration (MIC). In outline: (§1)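 Strains were tested on agar plates containing diluted compound, and the MIC (μg/mL) was recorded according to the Japan Society of Chemotherapy protocol.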

Another assay has as its system P. aeruginosa PAO1/GN315. Briefly: MIC, agar plate dilution method, P. aeruginosa PAO1/GN315. In kind it is cell-based, Pseudomonas aeruginosa. Particulars: for MIC: Pseudomonas aeruginosa, read-out: minimal inhibitory concentration (MIC), P. aeruginosa PAO1/GN315, AMK-resistant. In outline: as §1
The next assay has as its system S. marcescens TH-0447. Briefly: MIC, agar plate dilution method, S. marcescens TH-0447. The format is cell-based, Serratia marcescens. Particulars: for MIC: Serratia marcescens, TH0447, S. marcescens TH-0447, AMK-resistant, read-out: minimal inhibitory concentration (MIC). The gist of the method:
as §1

The test system of assay [1] is A. baumannii ATCC BAA-1710. Nature of the assay: MIC, agar plate dilution method, A. baumannii ATCC BAA-1710. In kind it is cell-based, Acinetobacter baumannii. Particulars: for MIC: Acinetobacter baumannii, ATCCBAA1710, A. baumannii ATCC BAA-1710, MDRA, read-out: minimal inhibitory concentration (MIC). The gist of the method: as §1
The next assay has as its system S. aureus RN4220. Briefly: MIC, agar plate dilution method, S. aureus RN4220. In kind it is cell-based, Staphylococcus aureus. Particulars: for MIC: Staphylococcus aureus, RN4220, S. aureus RN4220, Sensitive bacterium, read-out: minimal inhibitory concentration (MIC). The gist of the method: as §1
Assay [2] deals with K. pneumoniae ATCC BAA-2146. Briefly: MIC, agar plate dilution method, K. pneumoniae ATCC BAA-2146. The format is cell-based, Klebsiella pneumoniae. Particulars: for MIC: Klebsiella pneumoniae, ATCCBAA2146, K. pneumoniae ATCC BAA-2146, NDM-producing strain, read-out: minimal inhibitory concentration (MIC). The gist of the method:
as §1

In another assay the test system is P. aeruginosa MSC17707. Nature of the assay: MIC, agar plate dilution method, P. aeruginosa MSC17707. In kind it is cell-based, Pseudomonas aeruginosa. Particulars: for MIC: Pseudomonas aeruginosa, MSC17707, P. aeruginosa MSC17707, AMK-resistant, read-out: minimal inhibitory concentration (MIC). In outline: as §1
In a further assay the test system is E. faecium ATCC19434. Nature of the assay: MIC, agar plate dilution method, E. faecium ATCC19434. The format is cell-based, Enterococcus faecium. Particulars: for MIC: Enterococcus faecium, ATCC19434, E. faecium ATCC19434, read-out: minimal inhibitory concentration (MIC). The gist of the method:
as §1

For the next assay, the system named is E. coli JM109/pMW218. Briefly: MIC, agar plate dilution method, E. coli JM109/pMW218. In kind it is cell-based, Escherichia coli. Particulars: for MIC: Escherichia coli, JM109/PMW218, E. coli JM109/pMW218, Sensitive bacterium, read-out: minimal inhibitory concentration (MIC). In outline: as §1
The next assay has as its system S. aureus MF490. Nature of the assay: MIC, agar plate dilution method, S. aureus MF490. In kind it is cell-based, Staphylococcus aureus. The note with it: for MIC: Staphylococcus aureus, MRSA, read-out: minimal inhibitory concentration (MIC). In outline: as §1
The test system of another assay is S. marcescens GN6944. Nature of the assay: MIC, agar plate dilution method, S. marcescens GN6944. Particulars: S. marcescens GN6944, GM-resistant; for MIC: Serratia marcescens, read-out: minimal inhibitory concentration (MIC). In kind it is cell-based, Serratia marcescens. In outline:
as §1

Assay [3] relates to K. pneumoniae ATCC BAA-1705. Nature of the assay: MIC, agar plate dilution method, K. pneumoniae ATCC BAA-1705. The note with it: for MIC: Klebsiella pneumoniae, ATCCBAA1705, K. pneumoniae ATCC BAA-1705, KPC-producing strain, read-out: minimal inhibitory concentration (MIC). The format is cell-based, Klebsiella pneumoniae. The gist of the method:
as §1

Another assay relates to P. aeruginosa MSC01035. Nature of the assay: MIC, agar plate dilution method, P. aeruginosa MSC01035. Particulars: P. aeruginosa MSC01035, ABK-resistant; for MIC: Pseudomonas aeruginosa, read-out: minimal inhibitory concentration (MIC). The format is cell-based, Pseudomonas aeruginosa. In outline: as §1
A further assay concerns S. aureus RN4220/pMS520. Briefly: MIC, agar plate dilution method, S. aureus RN4220/pMS520. Particulars: for MIC: Staphylococcus aureus, MRSA, read-out: minimal inhibitory concentration (MIC), S. aureus RN4220/pMS520, MRSA. In kind it is cell-based, Staphylococcus aureus. In outline: as §1

Converted amounts (≈) assume the structure as drawn.

In the case of `CNC1C(O[C@H]2OC(CO)[C@@H](NC(=O)[C@@H](C)N)[C@H](O)C2O)O[C@H]2CC(N)[C@@H](O[C@@H]3C(N)C[C@@H](N)C(O)[C@H]3O)OC2C1O` (stereo partly drawn) [Compound V1-d, 4″-N-(D-alanyl)apramycin], the MIC in the assay with P. aeruginosa PAO1 worked out at 4 µg/mL (≈ 6.55 µM); with P. aeruginosa PAO1/GN315, 8 µg/mL (≈ 13.1 µM); in the assay on S. marcescens TH-0447, 16 µg/mL (≈ 26.2 µM); in assay [1], 8 µg/mL (≈ 13.1 µM); in the assay on S. aureus RN4220, 4 µg/mL (≈ 6.55 µM); in assay [2], 2 µg/mL (≈ 3.28 µM). The MIC with P. aeruginosa MSC17707 worked out at 8 µg/mL (≈ 13.1 µM); with E. faecium ATCC19434, 64 µg/mL (≈ 105 µM); in the assay on E. coli JM109/pMW218, 2 µg/mL (≈ 3.28 µM); with S. aureus MF490, 16 µg/mL (≈ 26.2 µM); with S. marcescens GN6944, 8 µg/mL (≈ 13.1 µM); in assay [3], 2 µg/mL (≈ 3.28 µM). The MIC came out at 8 µg/mL (≈ 13.1 µM) with P. aeruginosa MSC01035 and 4 µg/mL (≈ 6.55 µM) with S. aureus RN4220/pMS520.

For `CNC1C(O[C@H]2OC(CO)[C@@H](NC(=O)[C@@H](N)CO)[C@H](O)C2O)O[C@H]2CC(N)[C@@H](O[C@@H]3C(N)C[C@@H](N)C(O)[C@H]3O)OC2C1O` (stereo partly drawn) [Compound V1-e, 4″-N-(L-seryl)apramycin], the MIC in the assay with P. aeruginosa PAO1 is 8 µg/mL (≈ 12.8 µM); in the assay on P. aeruginosa PAO1/GN315 it was 8 µg/mL (≈ 12.8 µM); with S. marcescens TH-0447, 16 µg/mL (≈ 25.5 µM); in assay [1] it was 16 µg/mL (≈ 25.5 µM); with S. aureus RN4220 it was 8 µg/mL (≈ 12.8 µM); in assay [2] it was 2 µg/mL (≈ 3.19 µM). For the same molecule, the MIC in the assay on P. aeruginosa MSC17707 stood at 8 µg/mL (≈ 12.8 µM); in the assay on E. faecium ATCC19434, 64 µg/mL (≈ 102 µM); in the assay on E. coli JM109/pMW218, 2 µg/mL (≈ 3.19 µM); in the assay on S. aureus MF490 it was 32 µg/mL (≈ 51.1 µM); with S. marcescens GN6944, 8 µg/mL (≈ 12.8 µM); in assay [3] it was 4 µg/mL (≈ 6.38 µM). Also, the MIC in the assay on P. aeruginosa MSC01035 and in the assay with S. aureus RN4220/pMS520 was 8 µg/mL (≈ 12.8 µM) in each case.

`CN[C@@H]1[C@@H](O[C@H]2O[C@H](CO)[C@@H](NC(=O)[C@H](N)CO)[C@H](O)[C@H]2O)O[C@H]2C[C@@H](N)[C@@H](O[C@H]3[C@H](O)[C@@H](O)[C@H](N)C[C@@H]3N)O[C@@H]2[C@@H]1O` [Compound V1-f, 4″-N-(D-seryl)apramycin]: the “minimal inhibitory concentration (MIC)” value stood at 4 µg/mL (≈ 6.38 µM) in the assay on P. aeruginosa PAO1 (P. aeruginosa PAO1, Sensitive bacterium); 8 µg/mL (≈ 12.8 µM) in the assay on P. aeruginosa PAO1/GN315 (P. aeruginosa PAO1/GN315, AMK-resistant); 16 µg/mL (≈ 25.5 µM) in the assay on S. marcescens TH-0447 (S. marcescens TH-0447, AMK-resistant); 8 µg/mL (≈ 12.8 µM) in [1] (A. baumannii ATCC BAA-1710, MDRA); 8 µg/mL (≈ 12.8 µM) in the assay with S. aureus RN4220 (S. aureus RN4220, Sensitive bacterium); 2 µg/mL (≈ 3.19 µM) in assay [2] (K. pneumoniae ATCC BAA-2146, NDM-producing strain). The “minimal inhibitory concentration (MIC)” value with P. aeruginosa MSC17707 (P. aeruginosa MSC17707, AMK-resistant) came out at 8 µg/mL (≈ 12.8 µM); in the assay with E. faecium ATCC19434 (E. faecium ATCC19434) it was 64 µg/mL (≈ 102 µM); with E. coli JM109/pMW218 (E. coli JM109/pMW218, Sensitive bacterium), 2 µg/mL (≈ 3.19 µM); in the assay with S. aureus MF490 (S. aureus MF490, MRSA) it was 32 µg/mL (≈ 51.1 µM); in the assay with S. marcescens GN6944 it was 16 µg/mL (≈ 25.5 µM); in assay [3] (K. pneumoniae ATCC BAA-1705, KPC-producing strain), 4 µg/mL (≈ 6.38 µM). Also, the “minimal inhibitory concentration (MIC)” value with P. aeruginosa MSC01035 was found to be 8 µg/mL (≈ 12.8 µM); with S. aureus RN4220/pMS520 (S. aureus RN4220/pMS520, MRSA), 8 µg/mL (≈ 12.8 µM).

On to `CNC1C(O[C@H]2OC(CO)[C@@H](NC(=O)CCN)[C@H](O)C2O)O[C@H]2CC(N)[C@@H](O[C@@H]3C(N)C[C@@H](N)C(O)[C@H]3O)OC2C1O` (stereo partly drawn) [Compound V1-g, 4″-N-(β-alanyl)apramycin], for which the MIC in the assay on P. aeruginosa PAO1 was 4 µg/mL (≈ 6.55 µM); with P. aeruginosa PAO1/GN315 it was 4 µg/mL (≈ 6.55 µM); in the assay with S. marcescens TH-0447 it was 16 µg/mL (≈ 26.2 µM); in [1], 8 µg/mL (≈ 13.1 µM); in the assay on S. aureus RN4220, 4 µg/mL (≈ 6.55 µM); in [2], 1 µg/mL (≈ 1.64 µM). Further, the MIC worked out at 4 µg/mL (≈ 6.55 µM) in the assay on P. aeruginosa MSC17707; 32 µg/mL (≈ 52.4 µM) in the assay on E. faecium ATCC19434; 1 µg/mL (≈ 1.64 µM) in the assay on E. coli JM109/pMW218; 8 µg/mL (≈ 13.1 µM) in the assay with S. aureus MF490; 8 µg/mL (≈ 13.1 µM) in the assay on S. marcescens GN6944; 2 µg/mL (≈ 3.28 µM) in assay [3]. For the same molecule, the MIC in the assay with P. aeruginosa MSC01035 came to 4 µg/mL (≈ 6.55 µM); in the assay on S. aureus RN4220/pMS520 it was 2 µg/mL (≈ 3.28 µM).

These data come from patent US11135234B2, “Effective aminoglycoside antibiotic for multidrug-resistant bacteria” (MICROBIAL CHEMISTRY RESEARCH FOUNDATION, priority 2015, dated 2021).
